Reference: patent US7935711B2, “HIV inhibiting 2-(4-cyanophenylamino) pyrimidine oxide derivatives” (priority 2005, dated 2011)

Legend:
[1] = tested on: HIV strain D, mutation Y188L and S162K in HIV reverse transcriptase; assay: Antiviral spectrum, cellular assay, strain D; type: cell-based; conditions: Human immunodeficiency virus 1, read-out: pEC50 D (converted)
Protocol: (§1) Because of the increasing emergence of drug resistant HIV strains, the present compounds were tested for their potency against clinically isolated HIV strains harboring several mutations. These mutations are associated with resistance to reverse transcriptase inhibitors and result in viruses that show various degrees of phenotypic cross-resistance to the currently commercially available drugs such as for instance AZT and delavirdine.
(§2) The antiviral activity of the compound of the present invention is evaluated in the presence of wild type HIV and HIV mutants bearing mutations at the reverse transcriptase gene. The activity of the compounds is evaluated using a cellular assay and the residual activity is expressed in pEC50 values. The columns IIIB and A-G in the table list the pEC50 values against various strains IIIB, A-G.
Strain D contains mutation Y188L and S162K in HIV reverse transcriptase, […]

[2] = tested on: HIV strain A, mutation Y181C in HIV reverse transcriptase; assay: Antiviral spectrum, cellular assay, strain A; type: cell-based; conditions: Human immunodeficiency virus 1, read-out: pEC50 A (converted)
Protocol: as §1, §2
Strain A contains mutation Y181C in HIV reverse transcriptase, […]

[3] = tested on: HIV strain B, mutation K103N in HIV reverse transcriptase; assay: Antiviral spectrum, cellular assay, strain B; type: cell-based; conditions: Human immunodeficiency virus 1, read-out: pEC50 B (converted)
Protocol: as §1, §2
Strain B contains mutation K103N in HIV reverse transcriptase, […]

[4] = tested on: wild type HIV-LAI strain (IIIB); assay: Antiviral spectrum, cellular assay, strain IIIB; type: cell-based; conditions: Human immunodeficiency virus 1
Protocol: as §1, §2
Strain IIIB is wild type HIV-LAI strain;

[5] = tested on: HIV strain F, mutations K101E and K103N in HIV reverse transcriptase; assay: Antiviral spectrum, cellular assay, strain F; type: cell-based; conditions: Human immunodeficiency virus 1, read-out: pEC50 F (converted)
Protocol: as §1, §2
Strain F contains mutations K101E and K103N in HIV reverse transcriptase.

[6] = tested on: HIV strain E, mutations L100I and K103N in HIV reverse transcriptase; assay: Antiviral spectrum, cellular assay, strain E; type: cell-based; conditions: Human immunodeficiency virus 1, read-out: pEC50 E (converted)
Protocol: as §1, §2
Strain E contains mutations L100I and K103N in HIV reverse transcriptase, […]

[7] = tested on: HIV strain C, mutation L100I in HIV reverse transcriptase; assay: Antiviral spectrum, cellular assay, strain C; type: cell-based; conditions: Human immunodeficiency virus 1, read-out: pEC50 C (converted)
Protocol: as §1, §2
Strain C contains mutation L100I in HIV reverse transcriptase, […]

Row | SMILES | EC50 [1] | EC50 [2] | EC50 [3] | EC50 [4] | EC50 [5] | melting point | EC50 [6] | EC50 [7]
1 | Cc1cc(C#N)cc(C)c1Oc1nc(Nc2ccc(C#N)cc2)[n+]([O-])c(N)c1Br [Compound 1] | 0.603 nM | 0.631 nM | 1.41 nM | 0.575 nM | 1.05 nM | 271 °C | 1.07 nM | 0.631 nM
2 | Cc1cc(C#N)cc(C)c1Oc1nc(Nc2ccc(C#N)cc2)nc(N)c1Br [Compound A, 4-[[6-amino-5-bromo-2-[(4-cyanophenyl)amino]-4-pyrimidinyl]oxy]-3,5-dimethylbenzonitrile, reference compound] | 2.45 nM | 10 nM | 1.78 nM | 2.82 nM | 4.57 nM |  | 8.13 nM | 2.88 nM
